Results on two substances are retold here after article PMC7582918, “A short peptide of the C-terminal class Y helices of apolipoprotein A-I has preserved functions in cholesterol efflux and in vivo metabolic control” (Scientific Reports, 2020).

Series [1] in a line: Solubility of the peptide. The series is classed as physicochemical. As to conditions: peptide chemically modified at the termini. The source says: (§1) A 33-mer peptide (RG33) that corresponds to the two Class Y helices (11 and 22 residues, respectively) of the C-terminal domain of ApoA-I (corresponding to regions 209–219 and 220–241 of ApoA-I, respectively) was synthesized and chemically modified at the termini for increased stability (Fig. 1a), and analyzed by SDS-PAGE (Fig. 1b; Suppl. Fig.). Such modifications are known to lead to loss of the terminal charges of the modified peptide with potential reduction in solubility. […] Moreover, the stability of the peptide was tested by incubation for up to 90 min in either PBS or human or mouse plasma followed by LC–MS analysis of the peptide in the complex mixture, or for longer time periods (up to 168 h at 5 °C or 22 °C) in PBS followed by LC-UV analysis of the pure peptide. […] The extent of degradation in plasma was assumed not to affect the in vitro and in vivo analyses made herein. Nevertheless, while not needed for the current study, further modifications aimed at prolonging the half-life of the RG33 peptide in plasma would be beneficial for therapeutic uses.
Figure 1 Peptide characterization for RG33. (a) Full peptide sequence. (b) Peptide purity as shown by Tris/Tricine SDS PAGE visualized by coomassie staining, 5 μg/well. (c) Stability of native or refolded RG33 over time in phosphate buffer, human plasma or mouse plasma. GraphPad Prism (version 8.0) (www.graphpad.com) was used. […]

Series [2] is described as follows: Stability in PBS (LC-MS up to 90 min; LC-UV up to 168 h). The series is classed as physicochemical. On the procedure: (§2) Mouse CD-1 plasma (heparin) was from Novakemi AB. Analysis was performed using LC–MS/MS, a Sciex QTRAP 6500 coupled to a Waters Acquity LC system with an attached HSS T3 2 × 50 mm column. A 5%-100% acetonitrile gradient and 0.1% formic acid was used as mobile phase.
as §1
Figure 1 Peptide characterization for RG33. (a) Full peptide sequence. (b) Peptide purity as shown by Tris/Tricine SDS PAGE visualized by coomassie staining, 5 μg/well. (c) Stability of native or refolded RG33 over time in phosphate buffer, human plasma or mouse plasma. GraphPad Prism (version 8.0) (www.graphpad.com) was used. TEXT PRINTED IN THE PICTURE: (a) RG33: MW (g/mol): 3790.42; Solubility: > 3.0 mg/ml

A short description of series [3]: Stability in human plasma (LC-MS/MS). The series is classed as in vitro ADME. As to conditions: human plasma (citrate), pooled from four donors, incubation up to 90 min. The procedure:
Peptide (lyophilized powder) produced by Red Glead AB (Lund, Sweden) was reconstituted as previously described. Peptide concentration was determined using a NanoDrop 2000c spectrophotometer (Thermo Scientific), and integrity was analysed by Tris-Tricine SDS-PAGE followed by Coomassie staining and by circular dichroism spectroscopy (CD). CD spectra were acquired on a Jasco J-810 spectropolarimeter equipped with a Jasco CDF-426S Peltier, set to 25 °C[18]. Samples were loaded into a 1 mm quartz cuvette and CD spectra acquired at 25 °C in the far-UV range 200–260 nm, with a 1 nm wavelength increment. Averages of five scans were baseline-subtracted (PBS buffer; 25 mM phosphate, 150 mM NaCl) and the alpha-helical content was calculated from the molar ellipticity at 222 nm as previously described[11],[19]. Human plasma (citrate) was from Blodcentralen at the Uppsala academic hospital and pooled from four healthy volunteer blood donors after giving informed consent for general research use. […]
A 33-mer peptide (RG33) that corresponds to the two Class Y helices (11 and 22 residues, respectively) of the C-terminal domain of ApoA-I (corresponding to regions 209–219 and 220–241 of ApoA-I, respectively) was synthesized and chemically modified at the termini for increased stability (Fig. 1a), and analyzed by SDS-PAGE (Fig. 1b; Suppl. Fig.). […]

A short description of series [4]: Stability in mouse plasma (LC-MS/MS). As to conditions: mouse CD-1 plasma (heparin), incubation up to 90 min. Format: in vitro ADME. On the procedure:
as §2, §1
Figure 1 Peptide characterization for RG33. […]

Series [5] can be described thus: rHDL formation / solubilization of DMPC multilamellar vesicles, dynamic light scattering. As to conditions: 100 nm DMPC MLVs, 4 days at 24 °C, DLS. On the procedure:
1,2-Dimyristoyl-sn-glycero-3-phosphocholine (DMPC; Avanti Polar Lipids) was formed into 100 nm multilamellar vesicles (MLV) via extrusion using the LiposoFast system (Avestin) as previously described. MLV were incubated with RG33 at indicated ratios for 4 days at 24 °C to form rHDL. The resulting particle sizes were measured by Dynamic Light Scattering using a Zetasizer APS (Malvern Instruments).
Figure 2 Peptide structure and lipid complex formation activity of RG33. (a) Circular dichroism spectroscopy of RG33 dissolved in PBS at 0.2 mg/ml. This spectrum represents the average of five measurements using five separate solutions. (b) Helical wheel analysis of residues 209 to 241 of the ApoA-I protein. One-letter code for amino acids is used and numbered 1 to 33 with start at residue 209. (c) rHDL particles were prepared by incubating the MLVs with RG33 peptide in the molar ratios noted at 24 °C for four days. Particle size distribution was analysed by DLS and frequency curves generated for RG33. Both MLVs alone (data on pure 100 nm MLVs is adapted from[15]) and lipid-free peptide are included as controls. GraphPad Prism (version 8.0) (www.graphpad.com) was used. Data represents five individual experiments.
As described above, the amphipathic organization of the RG33 peptide is expected to promote efficient lipid-binding. […]

The conditions of series [6]: previously shown; cited from earlier work. The source says: Circular dichroism (CD) spectroscopy (Fig. 2a) was next used to assay for peptide integrity and secondary structure. The helical content of the RG33 peptide in solution was based on the CD data and estimated to be on average 31%. This is higher than the helical content of the 190–243 ApoA-I peptide which was previously shown to be in the range of 17–21% alpha-helix[11]. A high helical content combined with an amphipathic arrangement of the helices is important for the lipid-binding function. Indeed, the binding of lipids induces formation of amphipathic helixes of the ApoA-I protein[23]. In li ...

A further series has as its system J774 macrophages. As to conditions: previously described; cited from earlier work. The procedure: To analyze this, cultured J774 macrophages were loaded with isotope-labelled cholesterol, followed by incubation with RG33 (LF or LB) at specified concentrations for 2 h (Fig. 3a).

As for “Ac-PALEDLRQGLLPVLESFKVSFLSALEEYTKKLN-NH2 [RG33]”, in series [1], the Solubility was over 3000 µg/mL. Further, the “Stability in PBS, shorter incubation” value in series [2] (PBS (phosphate buffer), incubation up to 90 min, LC-MS analysis) was “intact”. Moreover, in series [2] (PBS, up to 168 h (a week) at 5 °C, LC-UV analysis of the pure peptide, data not shown), the “Stability in PBS, longer storage at 5 °C” value was “intact”. Besides, in series [2] (PBS, up to 168 h (a week) at 22 °C, LC-UV analysis of the pure peptide, data not shown), the “Stability in PBS, longer storage at 22 °C” value is reported as “intact”. For the same substance, the “Stability in human plasma” value in series [3] was “some degradation”. The “Stability in mouse plasma” value in series [4] was “some degradation”. Besides, the “Solubilization of DMPC MLVs at 1:50 peptide-to-lipid molar ratio” value in series [5] was “only partial solubilization”.
As to “RG54: Peptide corresponding to amino acid residues 190–243 of ApoA-I protein (AEYHAKATEHLSTLSEKAKPALEDLRQGLLPVLESFKVSFLSALEEYTKKLNTQ; UniProt P02647 214-267, looked up, fragment)”, the “Helical content (alpha-helix)” value in series [6] was 17–21%. The “Fold increase in Vmax, LB vs LF” value with J774 macrophages is “twofold increase”.

In general, Solubility refers to the dissolved amount per volume that the medium holds. A high value points to much dissolved substance.
